# Assay results reported in PMC8672713 (Chemical Science, 2021).
# Target: SARS-CoV-2 Mpro (Severe acute respiratory syndrome coronavirus 2, UniProt P0DTD1)
# Type: biochemical
row,Compound,IC50
1,Cc1cncc(C(=O)NC[C@H]2c3ccccc3CCN2C(=O)c2cccn3nnnc23)c1 [Z4921675438],10.8 µM
2,O=C(NC[C@@H]1CC2(CCC2)CN1C(=O)c1ccc(F)c(O)c1)c1cncc2ccccc12 [Z4927220858],11.2 µM
3,O=C(NC[C@H](NC(=O)c1cncc2sccc12)c1ccc2ccccc2c1)c1cocn1 [Z4921678803],12.1 µM
